Data set [1] has as its target T1, Glucagon-like peptide 2 receptor (Homo sapiens) (UniProt O95838).
T1 sequence (whole entry): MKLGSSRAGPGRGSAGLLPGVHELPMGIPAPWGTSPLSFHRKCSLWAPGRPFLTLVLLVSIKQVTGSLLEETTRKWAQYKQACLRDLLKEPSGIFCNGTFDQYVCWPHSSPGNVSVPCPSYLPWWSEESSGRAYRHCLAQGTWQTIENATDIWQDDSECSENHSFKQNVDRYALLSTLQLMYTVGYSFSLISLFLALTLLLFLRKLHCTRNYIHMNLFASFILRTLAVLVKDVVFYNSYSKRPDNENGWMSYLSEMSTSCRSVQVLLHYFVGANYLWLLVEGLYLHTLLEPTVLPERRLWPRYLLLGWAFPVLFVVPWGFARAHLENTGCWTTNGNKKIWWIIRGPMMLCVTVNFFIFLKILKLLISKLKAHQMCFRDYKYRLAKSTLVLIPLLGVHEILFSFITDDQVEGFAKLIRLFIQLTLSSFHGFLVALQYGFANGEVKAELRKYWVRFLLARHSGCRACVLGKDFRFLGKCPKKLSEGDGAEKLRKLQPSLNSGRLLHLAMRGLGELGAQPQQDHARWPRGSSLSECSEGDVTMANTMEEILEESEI
Nature of the data set: Agonist activity at recombinant human GLP-2R overexpressed in HEK293 cells assessed as cAMP accumulation by HTRF assay relative to control. The data set is classed as functional, cell-based. The note with it: filed as agonist.

Data set [2] can be described thus: Stability of compound assessed as change in fluorescence intensity measured after 96 hrs by ThT fibrillation assay. The data set is classed as physicochemical.
The target in data set [3] is T2, Glucagon-like peptide 2 receptor (Homo sapiens, UniProt O95838).
T2 sequence (O95838 whole entry): T1 sequence (whole entry)
Nature of the data set: Agonist activity at recombinant human GLP-2R overexpressed in HEK293 cells assessed as cAMP accumulation by HTRF assay. It is filed as functional, cell-based.

The subject of a further data set is Mus musculus. Kind of data set: Effect on small intestine of C57BL mouse assessed as mass of small intestine at 30 nmol/kg bid for 10 days relative to teduglutide. The data set is classed as functional. The settings on record: time 10 day.
A short description of data set [4]: Chemical stability in 50 mM Histidine at pH 7.0 at 40 degreeC assessed as fold decrease in total degradation measured after 3 weeks by HPLC analysis relative to teduglutide. It is filed as physicochemical. The settings on record: buffer, pH 7, 504 h.
Data set [5] is described as follows: Half life in human. It is filed as ADME.

Experimental findings from ChEMBL document CHEMBL6096729, “Creating Glepaglutide, the First Long-Acting GLP-2 Analogue to Enable a Ready-to-Use Injection” (J Med Chem, 2025) are described below.

Consider `CC[C@H](C)[C@H](NC(=O)[C@H](Cc1ccccc1)NC(=O)[C@H](CC(=O)O)NC(=O)[C@H](CCCNC(=N)N)NC(=O)[C@H](C)NC(=O)[C@H](C)NC(=O)[C@H](CC(C)C)NC(=O)[C@H](CC(N)=O)NC(=O)[C@H](CC(=O)O)NC(=O)[C@H](CC(C)C)NC(=O)[C@@H](NC(=O)[C@@H](NC(=O)[C@H](CC(N)=O)NC(=O)[C@H](CCSC)NC(=O)[C@H](CCC(=O)O)NC(=O)[C@H](CC(=O)O)NC(=O)[C@H](CO)NC(=O)[C@H](Cc1ccccc1)NC(=O)[C@H](CO)NC(=O)CNC(=O)[C@H](CC(=O)O)NC(=O)CNC(=O)[C@@H](N)Cc1c[nH]cn1)[C@@H](C)O)[C@@H](C)CC)C(=O)N[C@@H](CC(N)=O)C(=O)N[C@@H](Cc1c[nH]c2ccccc12)C(=O)N[C@@H](CC(C)C)C(=O)N[C@H](C(=O)N[C@@H](CCC(N)=O)C(=O)N[C@H](C(=O)N[C@@H](CCCCN)C(=O)N[C@H](C(=O)N[C@H](C(=O)N[C@@H](CC(=O)O)C(=O)O)[C@@H](C)O)[C@@H](C)CC)[C@@H](C)O)[C@@H](C)CC`, for which, in data set [1], the Efficacy is 101%.

As to H-HGEGSFSDELSTILDALAARDFIAWLIATKITD-NH2, the Flu intensity in data set [2] was 500 RFU.

For the compound “H-HGEGSFSDELSTILDALAARDFIAWLIATKITDKKKKKK-OH”, in data set [2], the Activity result is listed as “Not_active”.

As for H-HGEGSFSSELSTILDALAARDFIAWLIATKITD-NH2, the Flu intensity in data set [2] was determined as 500 RFU. Also, the EC50 in data set [3] amounted to 0.11 nM. In data set [1], the Efficacy was determined as 102%. Besides, in the data set on Mus musculus, the Activity stood at 106%.

Regarding “H-HGEGSFSSELSTILDALAARDFIAWLIATKITDKKKKKK-NH2”, the Activity result in data set [2] was “Not_active”; in the data set with Mus musculus it was 109%. In addition, in data set [3], the EC50 was found to be 0.18 nM. In data set [1], the Efficacy is 100%.

H-HGEGTFSDELSTILDALAARDFIAWLIATKITD-NH2: the Flu intensity in data set [2] is listed as 500 RFU. In addition, the 50% effective concentration (EC50) in data set [3] is 0.09 nM. The Efficacy in data set [1] came to 104%. Besides, the Activity with Mus musculus amounted to 98%.

Consider “H-HGEGTFSDELSTILDALAARDFIAWLIATKITDKKKKKK-NH2”, for which the Activity result was “Not_active” in data set [2] and 105% in the data set with Mus musculus. Also, the half-maximal effective concentration (EC50) in data set [3] was 0.34 nM. The Efficacy in data set [1] was 102%.

As to H-HGEGTFSSELATILDALAARDFIAWLIATKITD-NH2, the Activity entry in data set [2] is recorded as “Not_active”; in the data set on Mus musculus, 117%. The concentration giving a half-maximal response (EC50) in data set [3] amounted to 0.1 nM. For the same compound, the Efficacy in data set [1] came out at 100%.

In the case of “H-HGEGTFSSELATILDALAARDFIAWLIATKITDKKKKKK-NH2”, the Activity entry in data set [2] is given as “Not_active”; in the data set with Mus musculus it was 109%. Moreover, in data set [4], the “fold change (FC)” value stood at 2.6. Besides, the EC50 in data set [3] was 0.18 nM. The compound also had a half-life in data set [5] of 88 h. Also, the Efficacy in data set [1] is 102%.

For H-HGEGTFSSELSTILDALAARDFIAWLIATKITD-NH2, the Flu intensity in data set [2] amounted to 500 RFU. Besides, the 50% effective concentration (EC50) in data set [3] was found to be 0.18 nM. The Efficacy in data set [1] was 101%. Besides, the Activity in the data set on Mus musculus was 101%.

Take “H-HGEGTFSSELSTILDALAARDFIAWLIATKITDKKKKKK-NH2”: the Activity result in data set [2] is on record as “Not_active”; in the data set on Mus musculus, 106%. Further, the 50% effective concentration (EC50) in data set [3] is 0.37 nM. Also, the Efficacy in data set [1] was found to be 102%.
